Experimental findings from ChEMBL document CHEMBL3507680, “University of Dundee, Gates Library screen for HepG2 cell viability” are described below.

Structures are written as SMILES.

This data set in a line: Human HepG2 cell viability assay in 384 well format. Type of data set: toxicity, cell-based. Also noted: dose 125 nL, time 70.5 hour; concentration not given beside the values. To be noted: HepG2 cells, read-out: Inhibition.
For the compound `CC(CN1CCOCC1)OC(=O)c1ccccc1Cl` (stereo unspecified), the cytotoxicity at 70.5 h was -19.2%. Take `Cc1ccc2[nH]c3c(c2c1)CN(C(=O)CN(C)CC1OCCO1)CC3`: the cytotoxicity at 70.5 h is -1.1%. Turning to `COc1ccc(NC(=O)C2CC(=O)n3cnnc3S2)cc1` (stereo unspecified), the cytotoxicity at 70.5 h amounted to 2.23%. With `COC(=O)COn1c(SCC(=O)OC)nc2ccccc2c1=O`, the cytotoxicity at 70.5 h is -6.15%. As for `COC(=O)[C@@H](NC(=O)Nc1ccc(C(C)=O)cc1)C(C)C`, the cytotoxicity at 70.5 h turned out to be 13.3%. Consider `CCCc1ncc(C(=O)c2ccc(OC)cc2)n1C`, for which the cytotoxicity at 70.5 h is 14.7%. With `O=C(CN1CCN(C(=O)c2ccccc2)CC1)Nc1ccc(Br)cn1`, the cytotoxicity at 70.5 h was -8.87%. `COc1cccc(NC(=O)C2CC(=O)n3cnnc3S2)c1` (stereo unspecified): the cytotoxicity at 70.5 h turned out to be 2.31%. `N#Cc1c2n(c3c(N)ncnc13)CCCCC2`: the cytotoxicity at 70.5 h worked out at 16.8%. Then `CCN(CC)C(=O)CSc1nnc(CCNC(=O)OC(C)(C)C)o1`, with -11.3%; and `CCC1(CC)C(=O)NC(=O)N/C1=N/c1cccc(OC)c1`, with 26.5%.

Consider `CNCc1cc(C)n(-c2ccccc2OC)c1C`, for which the cytotoxicity at 70.5 h was -5.13%. Take `Nc1cccnc1N1CCN(c2ccccc2)CC1`: the cytotoxicity at 70.5 h is -0.724%. In the case of `O=C(O)CCn1ccc(=O)c2cc(F)ccc21`, the cytotoxicity at 70.5 h is -11.9%.

With `Cn1nc(-c2ccccc2)c(Cl)c1C(=O)O`, the cytotoxicity at 70.5 h is -25.8%. Then `O=C(O)c1cn(-c2ccccn2)c(=O)c2ccccc12`, with -11.1%.

On to `COc1ccc(-c2noc(C(N)CCSC)n2)cc1` (stereo unspecified), for which the cytotoxicity at 70.5 h amounted to 23.9%.

With `COc1ccc(-c2noc(C(N)CCSC)n2)cc1OC` (stereo unspecified), the cytotoxicity at 70.5 h is -3.12%. Regarding `CCCOc1ccc(CC2=NC(C)(CO)CO2)cc1` (stereo unspecified), the cytotoxicity at 70.5 h stood at 12%. Take `COC(=O)N1CC[C@@]2(O)CCCC[C@H]2[C@@H]1c1ccc2c(c1)OCO2`: the cytotoxicity at 70.5 h is -4.3%. For `O=C1Nc2ccccc2/C1=C1\CCCCCN1`, the cytotoxicity at 70.5 h was -9.34%. Consider `Cc1ccc(C(=O)N2CC[C@@]3(O)CCCC[C@H]3C2)cc1`, for which the cytotoxicity at 70.5 h is 7.79%. As to `CC[C@]12CN3C[C@](CC)(CN(C1)C3c1[nH]c(=O)[nH]c(=O)c1C)C2=O` (stereo partly specified), the cytotoxicity at 70.5 h was 19.3%.

In the case of `CC[C@]12CN3C[C@](C)(CN(C1)C3c1[nH]c(=O)[nH]c(=O)c1C)C2=O` (stereo partly specified), the cytotoxicity at 70.5 h is -2.75%. Then `CC(C)CCN1C(=O)C2(NC(=O)c3ccccc3O2)c2ccccc21` (stereo unspecified), with -15.1%. On to `COCCN1C(=O)c2ccc(C(=O)NCCc3c[nH]cn3)cc2C1=O`, for which the cytotoxicity at 70.5 h is -5.32%.

Regarding `CNC(=O)c1cn(C)c(-c2nc3cc(NC(C)=O)ccc3n2C)c1OC`, the cytotoxicity at 70.5 h was -17.5%. Then `CSCC[C@H](NC(=O)CCn1ccc2c(Cl)cccc21)C(=O)O`, with -2.74%; and `COc1ccc2c(ccn2CCC(=O)NCCCC(=O)O)c1`, with -10.4%.

Turning to `Cc1cc2ccccc2n1CC(=O)N[C@@H](C)C(=O)O`, the cytotoxicity at 70.5 h was -19.5%. Then `CSCC[C@H](NC(=O)CCn1cc(C(C)=O)c2ccccc21)C(=O)O`, with -8.28%. Turning to `COc1cccc(-c2nc(C)c(C(=O)N[C@@H](CC(C)C)C(=O)O)s2)c1`, the cytotoxicity at 70.5 h is -18.1%.

Consider `Cn1ccc2c(C(=O)N3CC[C@@]4(O)CCCC[C@H]4C3)cccc21`, for which the cytotoxicity at 70.5 h turned out to be 0.292%. On to `COc1cccc2c1ccn2CCNC(C)=O`, for which the cytotoxicity at 70.5 h was -16.2%.

On to `COc1cc2nc(C)n(CC(=O)NCC(C)C)c(=O)c2cc1OC`, for which the cytotoxicity at 70.5 h is -15.9%. On to `COc1cc2nc(C)n(CC(=O)NCCN(C)C)c(=O)c2cc1OC`, for which the cytotoxicity at 70.5 h is -17.2%.

With `COc1ccc(C2CC(=O)Oc3cc(C)[nH]c(=O)c32)cc1O` (stereo unspecified), the cytotoxicity at 70.5 h is -19.6%. Take `COc1cc(C2CC(=O)Oc3cc(C)[nH]c(=O)c32)ccc1OCC(=O)O` (stereo unspecified): the cytotoxicity at 70.5 h was -14.1%. Consider `O=C(NCCO)c1cc(-c2ccc3c(c2)CCO3)n[nH]1`, for which the cytotoxicity at 70.5 h was 18%. `CN(C)CCCNC(=O)c1cc(-c2ccc3c(c2)CCO3)n[nH]1`: the cytotoxicity at 70.5 h is 10.7%. For the compound `CC1(CO)COC(Cc2ccc(Cl)cc2)=N1` (stereo unspecified), the cytotoxicity at 70.5 h is 21%. Regarding `CC[S+](CC)[c-]1c(=O)[nH]c(=O)n(CCc2ccc(F)cc2)c1=O`, the cytotoxicity at 70.5 h worked out at 3.7%.

Turning to `C[S+](C)[c-]1c(=O)[nH]c(=O)n(CCc2ccc(F)cc2)c1=O`, the cytotoxicity at 70.5 h was -2.07%.

As for `CN1CCC(N(C)C(=O)Nc2ccc(Cl)cc2)CC1`, the cytotoxicity at 70.5 h was -2.16%. Regarding `COC(=O)COn1c(OC)nc2ccccc2c1=O`, the cytotoxicity at 70.5 h was -11.7%. Turning to `O=C1Nc2ccccc2/C1=C1\CCCCN1`, the cytotoxicity at 70.5 h was -10.3%. For `Cc1nnc(CN2CCCC2c2c(C)nn(C)c2Cl)o1` (stereo unspecified), the cytotoxicity at 70.5 h is -11.6%. Turning to `Cc1nn(C)c(Cl)c1C1CCCN1Cc1nc(C2CC2)no1` (stereo unspecified), the cytotoxicity at 70.5 h is -7.26%. For the compound `CC(C)c1nccn1C1CCCN(C(=O)c2cc(C3CC3)on2)C1` (stereo unspecified), the cytotoxicity at 70.5 h is -3.7%. In the case of `Cc1nccc(-c2cccc(NCC(=O)N3CCCC(C)C3)c2)n1` (stereo unspecified), the cytotoxicity at 70.5 h was -9.5%.

Take `Cc1noc(NC(=O)c2ccc(C#N)cc2)n1`: the cytotoxicity at 70.5 h is -7.88%.

Consider `Cc1noc(NC(=O)c2ccc(Br)o2)n1`, for which the cytotoxicity at 70.5 h is -9.68%. Turning to `CCc1nc(C)c(C(=O)NCCNC(=O)c2cccs2)s1`, the cytotoxicity at 70.5 h came out at 15.7%. In the case of `Cc1ccc(C(O)CNC(=O)NCc2c(C)cc(C)[nH]c2=O)cc1` (stereo unspecified), the cytotoxicity at 70.5 h was -9.83%. Regarding `Cc1cc(C)c(CNC(=O)NCC(O)c2ccc(Cl)cc2)c(=O)[nH]1` (stereo unspecified), the cytotoxicity at 70.5 h was -4.37%. On to `Cc1ccc(C(=O)NCC(O)c2cccc(F)c2)c(=O)[nH]1` (stereo unspecified), for which the cytotoxicity at 70.5 h is -0.0981%. Turning to `Cc1cc(C)c(CNC(=O)NCc2cc(F)cc(F)c2)c(=O)[nH]1`, the cytotoxicity at 70.5 h was -3.54%. With `Cc1cc(C)c(CNC(=O)NCC(O)c2ccccc2)c(=O)[nH]1` (stereo unspecified), the cytotoxicity at 70.5 h is -1.05%.

As to `COC(CNC(=O)NCc1c(C)cc(C)[nH]c1=O)c1ccccc1` (stereo unspecified), the cytotoxicity at 70.5 h is -12.2%. Consider `COc1ccccc1CN(C)C(=O)NCc1c(C)cc(C)[nH]c1=O`, for which the cytotoxicity at 70.5 h is -0.543%. As to `Cc1cc(C)c(CNC(=O)N(C)Cc2cccc(C#N)c2)c(=O)[nH]1`, the cytotoxicity at 70.5 h was -1.75%. As for `Cc1ccccc1-n1c(C)cc(C(=O)N2CCn3c(C)nnc3C2)c1C`, the cytotoxicity at 70.5 h was -1.44%. Take `Cc1nnc2n1CCN(C(=O)c1cc(C)n(-c3ccccc3)c1C)C2`: the cytotoxicity at 70.5 h was -4.87%. Then `CCOc1ccnc(N2CCN(C(=O)c3ccc(C#N)cc3)CC2)n1`, with 2.75%; and `CCOc1ccnc(N2CCN(C(=O)c3ccncc3)CC2)n1`, with -9.15%. Take `CC(NC(=O)NCc1c(F)cccc1Cl)(C(=O)O)c1ccco1` (stereo unspecified): the cytotoxicity at 70.5 h was -8.24%. Regarding `Cc1cnn(CC2CCCCN2C(=O)c2c(C)noc2C)c1` (stereo unspecified), the cytotoxicity at 70.5 h was -0.615%. On to `Cc1ncc2c(n1)CN(CC(=O)NCCOc1ccccc1)CC2`, for which the cytotoxicity at 70.5 h is -11.5%. Then `c1ccc(-n2ccc(CNCC3CCCN3c3cccnn3)n2)cc1` (stereo unspecified), with 0.819%; and `CC(C)c1n[nH]c(C2CN(C(=O)c3cnccn3)CCO2)n1` (stereo unspecified), with 18.8%; and `CCc1noc(C)c1C(=O)N1CCCC1Cn1cccn1` (stereo unspecified), with -3.75%. In the case of `O=C(NCc1ccccc1Cn1cncn1)C1CC1`, the cytotoxicity at 70.5 h was -11.8%. Regarding `CC(NC(=O)CSCC#N)c1cccc(Cl)c1` (stereo unspecified), the cytotoxicity at 70.5 h is -9.11%. For the compound `O=C(CCC1CCCO1)NCc1ccccc1Cn1cncn1` (stereo unspecified), the cytotoxicity at 70.5 h is -9.42%. On to `CCc1nc(C(=O)N2CCCC2)nn1-c1c(Cl)cccc1Cl`, for which the cytotoxicity at 70.5 h was -2.51%. `C=C(C)CN1CCC(NC(=O)c2scnc2C)CC1`: the cytotoxicity at 70.5 h is -5.87%. Then `Cc1nn(C)c(N2CCOCC2)c1CNC(C)c1cccs1` (stereo unspecified), with -1.47%; and `Cc1nccn1-c1cc(CNC(=O)C2CCCO2)ccn1` (stereo unspecified), with -7.47%. Then `Cc1cnc(C(=O)N2CCCC(n3cccn3)C2)cn1` (stereo unspecified), with -1.48%; and `COc1ccccc1OCCNC(=O)CN1CCc2cncnc2C1`, with -5.72%. As for `CC(C)(C)c1n[nH]c(C2CN(C(=O)C3=COCCC3)CCO2)n1` (stereo unspecified), the cytotoxicity at 70.5 h is -6.48%.

As for `Cc1nc(C(=O)N2CCOC(c3nc(C(C)C)n[nH]3)C2)c[nH]1` (stereo unspecified), the cytotoxicity at 70.5 h was -2.01%. Regarding `COc1c(CNCc2ccc3c(c2)OCCO3)c(C(C)C)nn1C`, the cytotoxicity at 70.5 h is -6.06%. Then `Cc1[nH]nc2ncc(C(=O)N3CCN(CCC(C)C)CC3)cc12`, with 25.8%; and `Cc1noc(C(C)N2CCN(Cc3ccco3)CC2)n1` (stereo unspecified), with -11.9%; and `O=C(NCCN1CCCS1(=O)=O)c1scnc1Cl`, with -24.6%. For `O=C(CCc1ccco1)Nc1cc(C(F)(F)F)c[nH]c1=O`, the cytotoxicity at 70.5 h is -8.18%. Take `CC1CCCN(CCNC(=O)c2scnc2Cl)C1` (stereo unspecified): the cytotoxicity at 70.5 h was -7.04%. As to `CN(Cc1ccco1)C(=O)Nc1cc(C(F)(F)F)c[nH]c1=O`, the cytotoxicity at 70.5 h was -14.9%. Then `CC(=O)N1CCCN(C(=O)CCc2c(C)nc3ccnn3c2C)CC1`, with -15.3%; and `COc1ccnc(N2CCN(C(=O)CN3CCOCC3)CC2)n1`, with 8.59%; and `CCS(=O)(=O)N1CCN(C(=O)c2cnc3[nH]nc(C)c3c2)CC1`, with -5.38%. Then `CCn1ccnc1CN1CCN(CCOc2ccccc2C#N)CC1`, with -19.6%; and `O=C(COCc1ccco1)Nc1cc(C(F)(F)F)c[nH]c1=O`, with 31.5%; and `Cc1nc(CN2CCc3nn(C)c(=O)cc3C2)oc1C`, with -9.42%. Then `CC(=O)Nc1nc(C(=O)N2CCCC(n3nc(C)nc3C)C2)cs1` (stereo unspecified), with -10.7%; and `Nc1cccnc1N1CCCCCC1`, with 2.46%. On to `CC(CN1CCOCC1)OC(=O)c1ccccc1I` (stereo unspecified), for which the cytotoxicity at 70.5 h was -15.6%. Then `CCC(C)[C@H](N)c1nnc(SCC(=O)Nc2ccc(Br)cc2)o1` (stereo partly specified), with -13.2%; and `CC(C)c1nn(C)c(Cl)c1CNCc1ccc2c(c1)OCO2`, with -5.25%; and `COc1no[n+]([O-])c1-c1ccccc1`, with 2.46%.
